Data reported in US20250114335A1, “METHODS AND COMPOSITIONS FOR THE TREATMENT OF EPILEPSY” (ARIZONA BOARD OF REGENTS ON BEHALF OF THE UNIVERSITY OF …, priority 2022, published 2025).
“And” between values parts separate entries of the source, which are not always exact repeats. Equal values may be shown once.

Columns and labels:
[1] = tested on: B6-D/D (Scn8a-N1768D) juvenile mice; experiment: Survival and seizure frequency, B6-D/D juvenile mice; format: in vivo, mouse; details: for Age at Death: daily s.c. injection
Excerpt: (§1) Mouse strains: The C57BL/6J-N1768D congenic mouse (B6-D/+) was used for phenotyping, RNAseq, and BBB studies. In addition, a hybrid strain that was produced by backcross breeding to transfer the Scn8a-N1768D allele from the B6 to the C3H/HeJ strain background was used to further assess the effect of CND on survival and seizure frequency. After constructing an F1 by crossing male B6-D/+ heterozygotes to female C3H/HeJ, five rounds of backcrossing (N6) produced a […] and 98.5% C3H/HeJ-N1768D line (C3H-D/+). Sister-brother mating maintained the 98.5% C3H background. […] C3H-D/D mice have a delayed seizure onset (˜40-45 days) and an extended survival (65-70 days) with intermittent bouts of TCs (FIG. 1A).
(§2) Phenotyping: Female and male mice on both the B6 and C3H backgrounds were housed in sex-specific groups of 3-4 per cage in a pathogen-free mouse facility with a 14 h light/10 h dark cycle (lights turned on at 5 am). A 24/7 video monitoring system was utilized to collect seizure data, with infrared illumination to monitor behavior during the dark period. Seizures were counted as individual TCs. Adult mice were followed from the age of 6 weeks, a period of time well before seizure onset, in order to identify the day of seizure onset. A seizure bout was defined as a cluster of seizures on consecutive days, and a gap as a seizure-free period of 3 days or more.
(§3) Preparation of CND suspension for injections and oral dosing: Juvenile B6-D/D and adult B6-D/+ mice were given subcutaneous (s.c.) injections with either CND (2-4 mg/kg/day; doses that fall within the FDA-approved range for CND in both adults and children) or vehicle (VEH) (Sigma-Aldrich) (FIG. 1B). Oral dosing of adults was performed by thoroughly mixing 160 μl of suspension containing 1.28 mg of CND or VEH with 5 g of pure (organic) peanut butter in a petri dish. Mice were given 1 g pellet per mouse each day. Pellets were weighed each day to record the amount consumed, and 24/7 video was used to verify that each mouse was consuming the pellet. An average of 0.79 g (±0.36 g) was consumed by an adult mouse (˜20-25 g), corresponding to 9.1±4.2 mg/kg/day. No correlations were found for the amount of CND consumed and lifetime survival or number of TCs.
Survival and seizure frequency studies: B6-D/D mice were injected with CND (n=10) or VEH (n=10) at 15 days of age (P15) and followed to monitor TCs by 24/7 video recording until death (FIG. 1B). A separate set of 10 B6-D/D mice was administered a daily s.c. injection of 25 mg/kg/day phenytoin (PHT) suspension or VEH (US Pharmacopeia, Sigma-Aldrich). Oral administration of CND or VEH was initiated at the time of seizure onset (range P75-P85) for adult B6-D/+ females (N=10) and males (N=10) (FIG. 1B). Mice were monitored for seizures by 24/7 video recording until the time of death.

[2] = tested on: B6-D/+ (Scn8a-N1768D) adult mice; experiment: Survival and seizure frequency, adult B6-D/+ mice followed for the entire lifespan; format: in vivo, mouse; parameters: reduction in post-onset seizure frequency: concentration or dose not given beside the values; details: for observed standard effect size, Kaplan-Meier survival: treated versus untreated
Excerpt: as §1, §2, §3
Survival and seizure frequency studies: B6-D/D mice were injected with CND (n=10) or VEH (n=10) at 15 days of age (P15) and followed to monitor TCs by 24/7 video recording until death (FIG. 1B). A separate set of 10 B6-D/D mice was administered a daily s.c. injection of 25 mg/kg/day phenytoin (PHT) suspension or VEH (US Pharmacopeia, Sigma-Aldrich). […] Mice were monitored for seizures by 24/7 video recording until the time of death.

[3] = B6-D/D juveniles, Treated, listed as CDN

## CCOc1nc2cccc(C(=O)O)c2n1Cc1ccc(-c2ccccc2-c2nnn[nH]2)cc1 [CND, candesartan]
[1]; B6-D/D
  days surviving longer than untreated: 6.3 days
[1]; B6-D/D Juveniles
  reduction in seizure frequency: 45.8%
[1]; B6-D/D juveniles, Treated
  #TCs: 119.0 TCs
  #TCs/day (Life): 0.09 TCs/day
  #TCs/day (PostTC): 15.4±10.3 TCs/day
  #gaps: 0.9
  Age at Onset: 21.4
  Days with TCs: 7.2 days
  gap days: 4.3 days
  mean gap length: 3.4
  Age at Death: 31.8 ± 2.7 days
[1]; [3]
  Age at Death: 31.8 days
  #TCs/day (PostTC): 15.4 TCs/day
[1]; B6-D/D juveniles, treated versus VEH
  increase in survival of juveniles: 27%
[1]; B6-D/D juveniles, treated versus untreated (VEH only)
  observed standard effect size, Kaplan-Meier survival: 0.79
[2]; B6-D/+ females
  increase in survival, treated versus untreated: 34.7%
  reduction in post-onset seizure frequency: 88.9%
  observed standard effect size, Kaplan-Meier survival: 0.59
[2]; B6-D/+ males
  increase in survival, treated versus untreated: 48.9%
  mean days surviving longer than untreated: 44.5 days
  reduction in post-onset seizure frequency: 56.5% and 59.1%
  observed standard effect size, Kaplan-Meier survival: 0.69
[2]; B6 Females (D/+), Treated
  #Days survived postTC: 76.4 days
  #TCs: 14.3 TCs
  #TCs/day (PostTC): 0.24 TCs/day
  Age at Onset: 91.2 days
  gap days: 34.0 days
  mean gap length: 8.3 days
[2]; B6 Females (D/+), Treated, oral from seizure onset
  Age at Death: 167.6 ± 19.1 days and 167.6 days
[2]; B6 Females (D/+), Treated, gap = seizure-free period of 3 days or more
  #gaps (av): 4.0
[2]; B6 Males (D/+), Treated Early
  #Days survived postTC: 16.8 days
  #TCs: 18.9 TCs
  #TCs/day (PostTC): 2.4 TCs/day
  #gaps (av): 2.6
  Age at Death: 121.6 days
  Age at Onset: 99.2 days
  gap days: 15.0 days
  mean gap length: 6.7 days
[2]; B6 Males (D/+), Treated Late
  #Days survived postTC: 52.7 days
  #TCs: 43.6 TCs
  #TCs/day (PostTC): 1.0 TCs/day
  #gaps (av): 4.0
  Age at Onset: 81.3 days
  gap days: 37.8 days
  mean gap length: 12.4 days
[2]; B6 Males (D/+), Treated Late (oral from seizure onset)
  Age at Death: 135.8 ± 28.4 days and 135.8 days
